From patent US12527325B2, “Pesticidally active diazine-amide compounds” (SYNGENTA CROP PROTECTION AG, priority 2019, dated 2026)

How the values were obtained:
Assay type in all cases: in vivo
[1] = test system: Plutella xylostella; assay: Example B5: Plutella xylostella (Diamond Back Moth); settings: 192 h, application rate of 200 ppm, 24-well artificial diet, eggs, 8 days after infestation, read-out: control in at least one of the two categories (mortality or growth inhibition)
Experimental: Example B5: Plutella xylostella (Diamond Back Moth)
24-well microtiter plates with artificial diet were treated with aqueous test solutions prepared from 10′000 ppm DMSO stock solutions by pipetting. After drying, Plutella eggs were pipetted through a plastic stencil onto a gel blotting paper and the plate was closed with it. The samples were assessed for mortality and growth inhibition in comparison to untreated samples 8 days after infestation.

[2] = test system: Spodoptera littoralis; assay: Example B9: Spodoptera littoralis (Egyptian Cotton Leaf Worm), cotton leaf disc spray; settings: foliar, 72 h, application rate of 200 ppm, sprayed cotton leaf discs, L1 larvae, 3 days after infestation, read-out: control in at least one of the three categories (mortality, anti-feedant or growth inhibition)
[3] = test system: Diabrotica balteata; assay: Example B1: Diabrotica balteata (Corn Root Worm); settings: 96 h, application rate of 200 ppm, sprayed maize sprouts, L2 larvae, 4 days after infestation, read-out: control in at least one of the two categories (mortality or growth inhibition)
Experimental: Example B1: Diabrotica balteata (Corn Root Worm)
Maize sprouts placed onto an agar layer in 24-well microtiter plates were treated with aqueous test solutions prepared from 10′000 ppm DMSO stock solutions by spraying. After drying, the plates were infested with L2 larvae (6 to 10 per well). The samples were assessed for mortality and growth inhibition in comparison to untreated samples 4 days after infestation.

[4] = test system: Chilo suppressalis; assay: Example B4: Chilo suppressalis (Striped Rice Stemborer); settings: 144 h, application rate of 200 ppm, artificial diet, L2 larvae, 6 days after infestation, read-out: control in at least one of the three categories (mortality, anti-feedant or growth inhibition)
Experimental: Example B4: Chilo suppressalis (Striped Rice Stemborer)
24-well microtiter plates with artificial diet were treated with aqueous test solutions prepared from 10′000 ppm DMSO stock solutions by pipetting. After drying, the plates were infested with L2 larvae (6-8 per well). The samples were assessed for mortality, anti-feeding effect, and growth inhibition in comparison to untreated samples 6 days after infestation. Control of Chilo suppressalis by a test sample is given when at least one of the categories mortality, anti-feedant effect, and growth inhibition is higher than the untreated sample.

| Compound | percent control (mortality or growth inhibition) at 200 ppm [1] [%] | percent control (mortality, anti-feedant effect or growth inhibition) at 200 ppm [2] [%] | percent control (mortality or growth inhibition) at 200 ppm [3] [%] | percent control (mortality, anti-feedant effect or growth inhibition) at 200 ppm [4] [%] |
| --- | --- | --- | --- | --- |
| Cc1cnc(-c2nccnc2C(C)NC(=O)c2cc(C(F)(F)F)cc(C(F)(F)C3CC3)c2)nc1 (centres unmarked) [P52, 3-[cyclopropyl (difluoro)methyl]-N-[1-[3-(5-methylpyrimidin-2-yl)pyrazin-2-yl]ethyl]-5-(trifluoromethyl)benzamide] | ≥ 80 | ≥ 80 |  |  |
| CC(NC(=O)c1cc(C(F)(F)F)cc(S(=O)(=O)C(F)(F)F)c1)c1nccnc1-c1ncc(Br)cn1 (centres unmarked) [P57, N-[1-[3-(5-bromopyrimidin-2-yl)pyrazin-2-yl]ethyl]-3-(trifluoromethyl)-5-(trifluoromethylsulfonyl) benzamide] | ≥ 80 | ≥ 80 | ≥ 80 | ≥ 80 |
| Cc1cnc(-c2nccnc2C(C)NC(=O)c2cc(C(F)(F)F)cc(S(=O)(=O)C(F)(F)F)c2)nc1 (centres unmarked) [P56, N-[1-[3-(5-methylpyrimidin-2-yl)pyrazin-2-yl]ethyl]-3-(trifluoromethyl)-5-(trifluoromethylsulfonyl) benzamide] | ≥ 80 | ≥ 80 |  | ≥ 80 |
| CC(NC(=O)c1cc(C2CC2)cc(C(F)(F)F)c1)c1nccnc1-c1ncc(Br)cn1 (centres unmarked) [P58, N-[1-[3-(5-bromopyrimidin-2-yl)pyrazin-2-yl]ethyl]-3-cyclopropyl-5-(trifluoromethyl) benzamide] | ≥ 80 | ≥ 80 | ≥ 80 | ≥ 80 |
| CC(NC(=O)c1cc(OCC2CC2)nc(C(F)(F)F)c1)c1nccnc1-c1ncccn1 (centres unmarked) [P43, 2-(cyclopropylmethoxy)-N-[1-(3-pyrimidin-2-ylpyrazin-2-yl)ethyl]-6-(trifluoromethyl)pyridine-4-carboxamide] | ≥ 80 |  |  | ≥ 80 |
| CC(NC(=O)c1cc(C(F)(F)F)cc(C(C)(C)C#N)c1)c1nccnc1-c1ccc(F)cn1 (centres unmarked) [P5, 3-(1-cyano-1-methyl-ethyl)-N-[1-[3-(5-fluoro-2-pyridyl)pyrazin-2-yl]ethyl]-5-(trifluoromethyl) benzamide] | ≥ 80 |  |  |  |
| Cc1cnc(-c2nccnc2C(C)NC(=O)c2cc(C3CC3)cc(C(F)(F)F)c2)nc1 (centres unmarked) [P51, 3-cyclopropyl-N-[1-[3-(5-methylpyrimidin-2-yl)pyrazin-2-yl]ethyl]-5-(trifluoromethyl)benzamide] | ≥ 80 | ≥ 80 |  |  |
| CC(NC(=O)c1cc(C(F)(F)F)cc(C(F)(F)C2CC2)c1)c1nccnc1-c1ccc(Cl)cn1 (centres unmarked) [P4, N-[1-[3-(5-chloro-2-pyridyl)pyrazin-2-yl]ethyl]-3-[cyclopropyl(difluoro)methyl]-5-(trifluoromethyl) benzamide] | ≥ 80 | ≥ 80 |  | ≥ 80 |
| Cc1cnc(-c2nccnc2C(C)NC(=O)c2cc(C(F)(F)F)cc(C3(C#N)CC3)c2)nc1 (centres unmarked) [P54, 3-(1-cyanocyclopropyl)-N-[1-[3-(5-methylpyrimidin-2-yl)pyrazin-2-yl]ethyl]-5-(trifluoromethyl)benzamide] | ≥ 80 | ≥ 80 |  | ≥ 80 |
| COC1(c2cc(C(=O)NC(C)c3nccnc3-c3ncccn3)cc(C(F)(F)F)c2)CC1 (centres unmarked) [P47, 3-(1-methoxycyclopropyl)-N-[1-(3-pyrimidin-2-ylpyrazin-2-yl)ethyl]-5-(trifluoromethyl)benzamide] | ≥ 80 |  |  | ≥ 80 |
